Measured values published in publication PMC9307329, “Enzymes Inhibition and Antioxidant Potential of Medicinal Plants Growing in Oman” (BioMed Research International, 2022).

Target: Jack bean urease (Canavalia ensiformis, UniProt P07374)
Details: substrate urea; phosphate buffer pH […]; […]°C; […] min

Chain of Jack bean urease (P07374 whole entry, looked up): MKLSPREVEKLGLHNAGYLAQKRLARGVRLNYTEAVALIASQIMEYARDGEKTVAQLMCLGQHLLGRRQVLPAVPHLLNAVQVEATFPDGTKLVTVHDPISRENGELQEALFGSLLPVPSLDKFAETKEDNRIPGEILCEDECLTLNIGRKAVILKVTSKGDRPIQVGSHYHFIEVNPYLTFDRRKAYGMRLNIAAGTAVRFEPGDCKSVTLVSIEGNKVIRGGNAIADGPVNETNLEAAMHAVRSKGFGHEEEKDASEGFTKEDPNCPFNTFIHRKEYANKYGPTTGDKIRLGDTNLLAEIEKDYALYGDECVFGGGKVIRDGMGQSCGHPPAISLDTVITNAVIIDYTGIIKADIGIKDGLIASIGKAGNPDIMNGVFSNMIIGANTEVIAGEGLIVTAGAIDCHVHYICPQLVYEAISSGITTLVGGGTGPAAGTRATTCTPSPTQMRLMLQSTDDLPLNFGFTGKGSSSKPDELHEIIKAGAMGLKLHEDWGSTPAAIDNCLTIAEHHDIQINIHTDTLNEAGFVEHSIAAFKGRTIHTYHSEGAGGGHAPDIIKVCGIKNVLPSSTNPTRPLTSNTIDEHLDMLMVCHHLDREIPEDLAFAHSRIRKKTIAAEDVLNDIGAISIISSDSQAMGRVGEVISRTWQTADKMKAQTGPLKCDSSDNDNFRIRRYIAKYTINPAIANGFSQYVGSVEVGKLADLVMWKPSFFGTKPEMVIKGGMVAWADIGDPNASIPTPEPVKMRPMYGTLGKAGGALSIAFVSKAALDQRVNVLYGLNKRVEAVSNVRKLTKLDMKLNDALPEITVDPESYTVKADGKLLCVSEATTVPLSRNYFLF

NC(N)=S [Thiourea]
Urease IC50 ± SEM: 1.58 ± 0.95 µg/mL
